US8278265B2, “Methods, kits and compositions comprising crotamine” (Fundacao de Amparo a Pesquisa do Estado de Sao Paulo—FAPESP, priority 2005, dated 2012)

Legend:
[1] = system: actively proliferating cells; assay: Marker for actively proliferating cells (BrDU co-labeling); format: cell-based, mice; details: FIG. 8E-H
Excerpt: The hanging drop method was used, with some amendments, to induce the differentiation of ES cells from USP-1 line (Wobus, A. M., Wallukat, G., Hescheler, J. (1991), Pluripotent Mouse Embryonic Cells are Able to Differentiate into Cardiomyocytes Expressing Chronotropic Responses to Adrenergic and Cholinergic Agents and Ca^2+ Channel Blockers, Differentiation 48, 173-182). Briefly, ES cell suspensions without fibroblasts were obtained, collected with 0.25% trypsin/EDTA (Gibco, U.S.A.). Said suspension was diluted up to 3.5×10^4 cells/ml and dropped by using a micropipette (25 μl per drop) on the Petri dish cap (10 cm). Drops adhered to the surface were turned upside down over the plate already containing 5 ml PBS. After three days in a CO2 oven, in the hanging drop culture in appropriate culture medium for ES, with no LIF, aggregates are formed, known as embryonic bodies (EBs). EBs were later transferred to another plate (35 mm) with a 1% agarose layer, and maintained in the CO2 oven at 37° C. On the fifth day, EBs were transferred to microscope slides, on another Petri dish, where they adhered and started differentiating into a monolayer.
Embryonic bodies, obtained according to the protocol as described above, after three days, adhered to small glass slides. […] Microscope slides were assembled in a PBS/glycerol solution (1:1) and analysed in a confocal microscope. […]

plasmid DNA = assay: Peptide-DNA interaction by circular dichroism; format: binding; details: molar ratio 200:1 and 1:1 (crotamine:DNA), absence and presence of 150 mM NaCl
Procedure: Circular dichroism spectra were taken in a spectropolarymeter JASCO 810 with a Peltier system for temperature control. The device is regularly calibrated with recrystallized d-10 camphorsulfonic acid. Standards used for the equipment were: wavelength range 190-260 nm; sensitivity 100 mdeg; resolution 0.5 nm; response 8 s; reading speed 50 nm/min; 8 accumulations; temperature 37° C. Samples were analysed in a 1 mm optical path cell in 10 mM sodium phosphate buffer, pH 7.4, in the presence or absence of 150 mM NaCl. The crotamine concentration used was 20 μM and plasmid DNA concentration was 0.1 μM. […]

mice = details: injected intraperitoneally; cited from earlier work
human fibroblasts = assay: In vitro incorporation of Cy3-crotamine in human fibroblasts; format: cell-based; details: after one hour of incubation, FIG. 2A
Procedure: Embrionary stem cells (ES) from mice, line USP-1 (Soukoyan, M. A., Kerkis, A. Y., Mello, M. R. B., Kerkis, I. E., Visintin, J. A., Pereira, L. V. (2002), Establishment of New Murine Embryonic Stem Cell Lines for the Generation of Mouse Models of Human Genetic Diseases, Braz. J. Med. Biol. Res. 35, 535-542) in the passage 8-10 were cultured on a layer of γ-irradiated embrionary fibroblasts of mice, kept in DMEM (Gibco, U.S.A.), supplemented with 15% FCS (Gibco, U.S.A.), 1 mM sodium piruvate, 1% non-essential amino acids, 0.1 mM β-mercaptoethanol and 1×103 U/ml murine Leukemia Inhibitor Factor (LIF) (ESGRO-LIF, Gibco). Human lymphoblastoids and primary fibroblasts were cultivated in DMEM and in RPMI, respectively, supplemented with 10% FCS with no antibiotics. Cultures were kept under humid atmosphere at 37° C. and 5% CO2.
In vitro assay: Semiconffluent cultures of pluripotent and differentiation ES cells (homogeneous cell population), as well as other cell cultures of normal and tumor origin, were kept in small laminar slides placed in 24-well plates containing appropriate culture medium. Cells were incubated for 2-3 minutes to 72 hours in the presence of Cy3-crotamine, under concentrations between 10 μM and 0.01 μM, or as control, just in the presence of the dye agent Cy3 diluted in 1 ml PBS (control). […]

Sequence: YKQCHKKGGHCFPKEKICLPPSSDFGKMDCRWRWK CCKKGSG (YKQCHKKGGHCFPKEKICLPPSSDFGKMDCRWRWKCCKKGSG; UniProt Q9PWF3 23-64, looked up) [crotamine]
- co-location with BrDU staining in actively proliferating ES cells [1]: co-location
- interaction with plasmid DNA by circular dichroism spectra (plasmid DNA): presence of interaction
- time to paralysis of the hind legs (mice): less than 15 minutes
- labeling of human fibroblasts (human fibroblasts): intensively marked
